Experimental data from US20050113286A1, “Methods for treating congestive heart failure” (priority 2002, published 2005).

Experiments:
[1] = system: patients with chronic decompensated HF; assay: FUSION I: left ventricular ejection fraction by echocardiography; type: in vivo, human
Excerpt: (§1) Surrogate measures with mechanistic implications included measures of serum aldosterone, serum endothelin-1, and serial measurements of ventricular function using ejection fractions derived from echocardiography. Pre-infusion aldosterone and endothelin-1 concentrations were collected and analyzed at a core lab (The Mayo Clinic, Rochester, Minn.) at weeks 1, 4, 8, and 12; post-infusion concentrations were collected at weeks 1 and 12. Left ventricular ejection fractions were serially measured and read at a core lab (Midwest Heart Foundation Echocardiographic Core Laboratory, Lombard, Ill.).

[2] = system: acute decompensated heart failure; details: compared with milrinone; cited from earlier work
[3] = system: patients with chronic decompensated HF; assay: FUSION I: quality of life, Minnesota Living With HF questionnaire; type: in vivo, human; details: weeks 4, 8, and 12
Experimental: At weeks 4, 8, and 12, the change from baseline global clinical status was assessed by both the patient and the investigator; assessments were rated on a 7-point ordinal scale from markedly worse (−3) to markedly better (+3).^1l,12 In addition, patients' assessment of quality of life was measured at baseline and at weeks 4, 8, and 12 using the Minnesota Living With HF questionnaire. (Rector TS, Kubo SH, Cohn J N. Patients' self-assessment of their congestive heart failure. Part 2: Content, reliability and validity of a new measure, The Minnesota Living with Heart Failure Questionnaire. Heart Failure 1987;October/November:198-209.)

[4] = system: aldosterone; assay: FUSION I: serum aldosterone; type: in vivo, human
Excerpt: as §1

[5] = system: patients with chronic decompensated HF; assay: FUSION I: use of IV inotropic agents during study visits; type: in vivo, human
Excerpt: Patients in all treatment groups were allowed to receive any long-term cardiac or noncardiac medications, including IV diuretics, according to investigator discretion. At each visit, the investigator ensured that optimal medical treatment regimens were established. Patients who were randomized to usual care only were allowed to receive positive inotropic agents (milrinone, dobutamine, or dopamine) only if the investigator believed that inotropic support was required to alleviate symptomatic HF and yield hemodynamic stability. Inotropic agents were not permitted in the nesiritide groups unless they were urgently required to prevent hospitalization. During hospitalization, there was no restriction on the use of inotropic agents or nesiritide, regardless of treatment group.

[6] = system: symptoms of acute decompensated HF; details: VMAC trial; cited from earlier work
[7] = all patients who received nesiritide

In the case of “Nesiritide: a recombinant form of human B-type natriuretic peptide (BNP)”, the “Mean change in ejection fraction from baseline to week 12” value ([1]; 0.005-μg/kg/min) is given as “+4.0±3.3%”, the “Mean change in ejection fraction from baseline to week 12” value ([1]; 0.01-μg/kg/min, p=0.03 compared with the usual-care group) is given as “+5.3±5.0%” and the Length of stay [2] is given as “shorter length of stay”. For the same substance, the Readmissions [2] was “fewer readmissions”, the “Quality of life, between treatment groups” value [3] was “no significant differences” and the “Quality of life compared with baseline” value ([3]; all treatment groups) was “significant improvement”. For the same substance, the “Post-infusion levels of aldosterone versus baseline” value ([4]; after the week 12 infusion, 0.01-μg/kg/min and all-nesiritide group, p<0.02 (FIG. 2A)) was “significant changes from baseline”, the “Mean pre-infusion aldosterone values over time” value ([4]; any treatment group) was “no significant changes” and the “Mean change from baseline (±standard deviation) in post-infusion aldosterone” value ([4]; week 1, 0.005-μg/kg/min) was -5.0 ± 14.8 pg/mL. The “Mean change from baseline (±standard deviation) in post-infusion aldosterone” value ([4]; week 1, 0.01-μg/kg/min, p=0.02 compared to baseline) was -10.9 ± 22.8 pg/mL, the “Mean post-infusion values of aldosterone versus baseline” value ([4]; weeks 1 and 12, both nesiritide groups) was “significant declines” and the “Patients receiving IV inotropic agents during study visits through week 12, number” value ([5]; 0.005 μg/kg/min, n = 72) was 0. For the same substance, the “Patients receiving IV inotropic agents during study visits through week 12, %” value ([5]; 0.01 μg/kg/min, n = 69) was 3%, the “Patients receiving IV inotropic agents during study visits through week 12, number” value ([5]; 0.01 μg/kg/min, n = 69) was 2 and the “Patients who also received an inotropic agent during a study visit because of decompensated HF, %” value [5, 7] was < 2%. For the same substance, the “Patients who also received an inotropic agent during a study visit because of decompensated HF, number” value [5, 7] was 2 and the “Resolution of the symptoms of acute decompensated HF versus IV diuretics or nitroglycerin” value [6] was “more rapid resolution”.
